Values quoted from earlier work, collected in US11274111B2, “Arginase inhibitors and methods of use” (Merck Sharp & Dohme Corp., priority 2018, dated 2022).

Assays:
[1] = system: opossum internal anal sphincter muscle; details: cited from earlier work
guinea pigs = details: nebulizer treatment, allergic asthma model; cited from earlier work
[2] = system: rabbit and human penile corpus cavernosum; details: cited from earlier work
live male rabbits = details: cited from earlier work
[3] = system: corpus cavernosum of the diabetic person; details: ex vivo; cited from earlier work
live female rabbits = details: cited from earlier work
[4] = system: experimental autoimmune encephalomyelitis; details: cited from earlier work

N[C@@H](CCCCB(O)O)C(=O)O [ABH, (S)-2-amino-6-boronohexanoic acid]
relaxation of internal anal sphincter muscle [1]: relax this muscle | airway hyperresponsiveness (guinea pigs): prevents airway hyperresponsiveness | nitric oxide-dependent relaxation of corpus cavernosum [2]: enhances the nitric oxide-dependent relaxation of this tissue | erectile response (live male rabbits): enhances the erectile response | nitric oxide biosynthesis [3]: restores nitric oxide biosynthesis | engorgement response in the genitalia (live female rabbits): enhances the engorgement response | disease score [4]: improves the disease score of animals
